# Data taken from paper PMC8698299, “Targeting Mycobacterial F-ATP Synthase C-Terminal α Subunit Interaction Motif on Rotary Subunit γ” (Antibiotics, 2021).
# Target: T1, F-ATP synthase (subunit γ, site proposed by docking) (Mycolicibacterium smegmatis, UniProt A0R201)
# T1 construct: gene atpG; Recombinant M. smegmatis WT F-ATP synthase, purified and reconstituted into proteoliposomes; with other F-ATP synthase subunits (α3:β3:γ:δ:ε:a:b:b’:c9), in particular subunit α
# Test: ATP synthesis by reconstituted recombinant MsF-ATP synthase, continuous luciferase assay (also IMV ATP synthesis, IC50 […])
# Format: biochemical
# T1 sequence (A0R201 2-307): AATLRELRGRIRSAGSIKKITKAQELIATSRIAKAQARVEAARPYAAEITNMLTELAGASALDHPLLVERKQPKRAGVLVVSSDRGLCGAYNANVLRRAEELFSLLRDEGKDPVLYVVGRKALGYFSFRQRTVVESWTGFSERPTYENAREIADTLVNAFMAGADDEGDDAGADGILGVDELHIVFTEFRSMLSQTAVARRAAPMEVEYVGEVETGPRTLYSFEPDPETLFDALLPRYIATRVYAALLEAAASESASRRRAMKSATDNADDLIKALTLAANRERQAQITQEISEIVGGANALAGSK
smiles,measurement,value
"COc1cc(NC(=O)C2=C(C)OCCS2)c(Cl)cc1C(=O)NCCCN1CCCC1=O [AlMF1, N-(2-chloro-5-methoxy-4-((3-(2-oxopyrrolidin-1-yl)propyl)carbamoyl)phenyl)-2-methyl-5,6-dihydro-1,4-oxathiine-3-carboxamide]",inhibition at 50 µM,71%
